Measured values: ChEMBL document CHEMBL2346657, “Synthesis of novel 2-amino-4-(5'-substituted 2'-phenyl-1H-indol-3'-yl)-6-aryl-4H-pyran-3-carbonitrile derivatives as antimicrobial and antioxidant agents” (2013)
The source made the active and inactive calls. Unless noted, the calls are words filed in the database; no cut-off is given here.

Tests used:
Type in all cases: functional
[1] = Antioxidant activity assessed as metal chelating activity by measuring inhibition of ferrozine-Fe2+ complex formation at 25 to 100 ug/ml
[2] = Antioxidant activity assessed as metal chelating activity by measuring inhibition of ferrozine-Fe2+ complex formation at 100 ug/ml; set-up: scale not given: the % may be the effect or the level left
[3] = Antioxidant activity assessed as ferric ion reducing activity at 75 ug/ml by FRAP assay
Aspergillus flavus [4] = assay: Antimicrobial activity against Aspergillus flavus MTCC 1973 at 500 ug/ml after 72 hrs by cup plate method; conditions: MTCC 1973, 72 h, read-out: IZ
Aspergillus flavus [5] = assay: Antimicrobial activity against Aspergillus flavus MTCC 1973 at 750 ug/ml after 72 hrs by cup plate method; conditions: MTCC 1973, 72 h, read-out: IZ
Aspergillus flavus [6] = assay: Antimicrobial activity against Aspergillus flavus MTCC 1973 at 1000 ug/ml after 72 hrs by cup plate method; conditions: MTCC 1973, 72 h, read-out: IZ
Aspergillus terreus [7] = assay: Antimicrobial activity against Aspergillus terreus MTCC 1782 at 500 ug/ml after 72 hrs by cup plate method; conditions: MTCC 1782, 72 h, read-out: IZ
Aspergillus terreus [8] = assay: Antimicrobial activity against Aspergillus terreus MTCC 1782 at 750 ug/ml after 72 hrs by cup plate method; conditions: MTCC 1782, 72 h, read-out: IZ
Aspergillus terreus [9] = assay: Antimicrobial activity against Aspergillus terreus MTCC 1782 at 1000 ug/ml after 72 hrs by cup plate method; conditions: MTCC 1782, 72 h, read-out: IZ
Aspergillus oryzae [10] = assay: Antimicrobial activity against Aspergillus oryzae MTCC 3567 at 500 ug/ml after 72 hrs by cup plate method; conditions: MTCC 3567, 72 h, read-out: IZ
Aspergillus oryzae [11] = assay: Antimicrobial activity against Aspergillus oryzae MTCC 3567 at 750 ug/ml after 72 hrs by cup plate method; conditions: MTCC 3567, 72 h, read-out: IZ
Aspergillus oryzae [12] = assay: Antimicrobial activity against Aspergillus oryzae MTCC 3567 at 1000 ug/ml after 72 hrs by cup plate method; conditions: MTCC 3567, 72 h, read-out: IZ
Aspergillus niger [13] = assay: Antimicrobial activity against Aspergillus niger MTCC 281 at 500 ug/ml after 72 hrs by cup plate method; conditions: MTCC 281, 72 h, read-out: IZ
Aspergillus niger [14] = assay: Antimicrobial activity against Aspergillus niger MTCC 281 at 750 ug/ml after 72 hrs by cup plate method; conditions: MTCC 281, 72 h, read-out: IZ
Aspergillus niger [15] = assay: Antimicrobial activity against Aspergillus niger MTCC 281 at 1000 ug/ml after 72 hrs by cup plate method; conditions: MTCC 281, 72 h, read-out: IZ
Pseudomonas aeruginosa [16] = assay: Antimicrobial activity against Pseudomonas aeruginosa MTCC 1688 at 500 ug/ml after 24 hrs by cup plate method; conditions: MTCC 1688, 24 h, read-out: IZ
Pseudomonas aeruginosa [17] = assay: Antimicrobial activity against Pseudomonas aeruginosa MTCC 1688 at 750 ug/ml after 24 hrs by cup plate method; conditions: MTCC 1688, 24 h, read-out: IZ
Pseudomonas aeruginosa [18] = assay: Antimicrobial activity against Pseudomonas aeruginosa MTCC 1688 at 1000 ug/ml after 24 hrs by cup plate method; conditions: MTCC 1688, 24 h, read-out: IZ
Klebsiella pneumoniae [19] = assay: Antimicrobial activity against Klebsiella pneumoniae NCTC 13368 at 500 ug/ml after 24 hrs by cup plate method; conditions: NCTC 13368, 24 h, read-out: IZ
Klebsiella pneumoniae [20] = assay: Antimicrobial activity against Klebsiella pneumoniae NCTC 13368 at 750 ug/ml after 24 hrs by cup plate method; conditions: NCTC 13368, 24 h, read-out: IZ
Klebsiella pneumoniae [21] = assay: Antimicrobial activity against Klebsiella pneumoniae NCTC 13368 at 1000 ug/ml after 24 hrs by cup plate method; conditions: NCTC 13368, 24 h, read-out: IZ
Staphylococcus aureus [22] = assay: Antimicrobial activity against Staphylococcus aureus ATCC 29513 at 500 ug/ml after 24 hrs by cup plate method; conditions: ATCC 29513, 24 h, read-out: IZ
Staphylococcus aureus [23] = assay: Antimicrobial activity against Staphylococcus aureus ATCC 29513 at 750 ug/ml after 24 hrs by cup plate method; conditions: ATCC 29513, 24 h, read-out: IZ
Staphylococcus aureus [24] = assay: Antimicrobial activity against Staphylococcus aureus ATCC 29513 at 1000 ug/ml after 24 hrs by cup plate method; conditions: ATCC 29513, 24 h, read-out: IZ
Escherichia coli [25] = assay: Antimicrobial activity against Escherichia coli MTCC 723 at 500 ug/ml after 24 hrs by cup plate method; conditions: MTCC 723, 24 h, read-out: IZ
Escherichia coli [26] = assay: Antimicrobial activity against Escherichia coli MTCC 723 at 750 ug/ml after 24 hrs by cup plate method; conditions: MTCC 723, 24 h, read-out: IZ
Escherichia coli [27] = assay: Antimicrobial activity against Escherichia coli MTCC 723 at 1000 ug/ml after 24 hrs by cup plate method; conditions: MTCC 723, 24 h, read-out: IZ
[28] = test system: Radical scavenging activity; assay: Antioxidant activity assessed as DPPH radical scavenging activity at 75 ug/ml
[29] = test system: Radical scavenging activity; assay: Antioxidant activity assessed as DPPH radical scavenging activity at 50 ug/ml

Row | SMILES | Activity [1] | zone of inhibition at 500 µg/mL (Aspergillus flavus [4]) [mm] | zone of inhibition at 750 µg/mL (Aspergillus flavus [5]) [mm] | zone of inhibition at 1000 µg/mL (Aspergillus flavus [6]) [mm] | zone of inhibition at 500 µg/mL (Aspergillus terreus [7]) [mm] | zone of inhibition at 750 µg/mL (Aspergillus terreus [8]) [mm] | zone of inhibition at 1000 µg/mL (Aspergillus terreus [9]) [mm] | zone of inhibition at 500 µg/mL (Aspergillus oryzae [10]) [mm] | zone of inhibition at 750 µg/mL (Aspergillus oryzae [11]) [mm] | zone of inhibition at 1000 µg/mL (Aspergillus oryzae [12]) [mm] | zone of inhibition at 500 µg/mL (Aspergillus niger [13]) [mm] | zone of inhibition at 750 µg/mL (Aspergillus niger [14]) [mm] | zone of inhibition at 1000 µg/mL (Aspergillus niger [15]) [mm] | zone of inhibition at 500 µg/mL (Pseudomonas aeruginosa [16]) [mm] | zone of inhibition at 750 µg/mL (Pseudomonas aeruginosa [17]) [mm] | zone of inhibition at 1000 µg/mL (Pseudomonas aeruginosa [18]) [mm] | zone of inhibition at 500 µg/mL (Klebsiella pneumoniae [19]) [mm] | zone of inhibition at 750 µg/mL (Klebsiella pneumoniae [20]) [mm] | zone of inhibition at 1000 µg/mL (Klebsiella pneumoniae [21]) [mm] | zone of inhibition at 500 µg/mL (Staphylococcus aureus [22]) [mm] | also measured
1 | N#Cc1c(N)c2c(N)c3c(nc2oc1=O)OC(c1ccc(Cl)cc1)=CC3c1c(-c2ccccc2)[nH]c2ccc(Cl)cc12 (centres undefined) | Active | 10 | 9 | 8 | 12 | 13 | 13 | 9 | 3 | 3 | 8 | 8 | 10 | 9 | 8 | 3 | 13 | 13 | 13 | 12 | Activity [2]: 79.7%; Activity [3]: Active; zone of inhibition at 750 µg/mL (Staphylococcus aureus [23]): 12 mm; zone of inhibition at 1000 µg/mL (Staphylococcus aureus [24]): 10 mm; zone of inhibition at 500 µg/mL (Escherichia coli [25]): 11 mm; zone of inhibition at 750 µg/mL (Escherichia coli [26]): 12 mm; zone of inhibition at 1000 µg/mL (Escherichia coli [27]): 14 mm
2 | O=c1[nH]cnc2c1C(c1c(-c3ccccc3)[nH]c3ccc(Cl)cc13)C=C(c1ccc(Cl)cc1)O2 (centres undefined) | Active | 4 | 4 | 4 | 5 | 5 | 5 | 3 | 3 | 3 | 6 | 5 | 5 | 8 | 8 | 8 | 12 | 12 | 12 | 9 | Activity [28]: Active; Activity [29]: Active; zone of inhibition at 750 µg/mL (Staphylococcus aureus [23]): 9 mm; zone of inhibition at 1000 µg/mL (Staphylococcus aureus [24]): 12 mm; zone of inhibition at 500 µg/mL (Escherichia coli [25]): 9 mm; zone of inhibition at 750 µg/mL (Escherichia coli [26]): 9 mm; zone of inhibition at 1000 µg/mL (Escherichia coli [27]): 8 mm
